These results are taken from patent US20230257372A1 (CHONG KUN DANG PHARMACEUTICAL CORP., priority 2020, published 2023).

Bounds are passed on as bounds.

Assay [1] has as its target T1, human recombinant HDAC6 (Homo sapiens, UniProt Q9UBN7).
T1 construct: purchased Calbiochem Inc. 382180
T1 sequence (Q9UBN7 1-1215): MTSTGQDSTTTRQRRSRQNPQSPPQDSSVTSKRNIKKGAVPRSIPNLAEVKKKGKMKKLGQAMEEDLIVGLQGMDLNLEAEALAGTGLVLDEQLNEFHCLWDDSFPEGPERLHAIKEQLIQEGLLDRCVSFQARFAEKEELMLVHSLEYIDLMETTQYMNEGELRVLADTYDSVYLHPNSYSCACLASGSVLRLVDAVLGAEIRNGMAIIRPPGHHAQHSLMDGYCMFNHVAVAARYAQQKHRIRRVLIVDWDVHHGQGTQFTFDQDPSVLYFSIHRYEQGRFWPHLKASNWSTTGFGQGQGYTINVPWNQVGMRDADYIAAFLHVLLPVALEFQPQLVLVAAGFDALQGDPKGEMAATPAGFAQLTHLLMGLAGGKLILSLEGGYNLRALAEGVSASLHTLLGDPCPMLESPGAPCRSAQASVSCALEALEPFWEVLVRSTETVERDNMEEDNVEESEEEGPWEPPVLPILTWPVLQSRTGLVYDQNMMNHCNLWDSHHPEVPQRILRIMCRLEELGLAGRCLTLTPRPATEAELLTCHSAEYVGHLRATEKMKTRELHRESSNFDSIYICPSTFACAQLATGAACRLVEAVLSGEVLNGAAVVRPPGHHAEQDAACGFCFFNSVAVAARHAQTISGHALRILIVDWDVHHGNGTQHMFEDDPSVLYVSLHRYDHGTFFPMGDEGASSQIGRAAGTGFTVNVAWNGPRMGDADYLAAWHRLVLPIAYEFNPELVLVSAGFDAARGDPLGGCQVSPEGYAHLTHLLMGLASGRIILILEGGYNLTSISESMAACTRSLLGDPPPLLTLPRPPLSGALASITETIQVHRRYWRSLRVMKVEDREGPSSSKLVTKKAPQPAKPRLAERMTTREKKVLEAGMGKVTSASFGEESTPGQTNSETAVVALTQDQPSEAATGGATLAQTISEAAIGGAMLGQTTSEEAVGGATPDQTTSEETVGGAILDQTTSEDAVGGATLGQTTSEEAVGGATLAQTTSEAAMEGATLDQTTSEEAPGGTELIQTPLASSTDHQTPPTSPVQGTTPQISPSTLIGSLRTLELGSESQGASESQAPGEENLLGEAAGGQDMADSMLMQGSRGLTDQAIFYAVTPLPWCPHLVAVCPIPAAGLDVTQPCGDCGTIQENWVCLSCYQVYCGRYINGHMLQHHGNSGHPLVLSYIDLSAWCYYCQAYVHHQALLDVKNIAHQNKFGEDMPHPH
Briefly: HDAC6 enzyme activity inhibition (HDAC Fluorimetric Drug Discovery Kit). To be noted: for HDAC6 selectivity (fold): HDAC6 over HDAC1; for IC50: human recombinant HDAC6, same protocol as HDAC1. It is filed as biochemical. In a few lines: (§1)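 Fluorescence from a Fluor de Lys developer step (30 minutes) reports residual deacetylation after a 60-minute, 30° C reaction of […] enzyme with 10 μM substrate and 5-fold compound dilutions.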

The target of assay [2] is T2, human recombinant HDAC1 (Homo sapiens, UniProt Q13547).
T2 construct: purchased Enzo Life Science, Inc. BML-SE456
As to the kind of experiment: HDAC1 enzyme activity inhibition (HDAC Fluorimetric Drug Discovery Kit). The assay is classed as biochemical. To be noted: human recombinant HDAC1, Fluor de Lys substrate, 30° C. 60 minutes; read-out: HDAC1. The method in brief:
as §1

T2 sequence (Q13547 whole entry): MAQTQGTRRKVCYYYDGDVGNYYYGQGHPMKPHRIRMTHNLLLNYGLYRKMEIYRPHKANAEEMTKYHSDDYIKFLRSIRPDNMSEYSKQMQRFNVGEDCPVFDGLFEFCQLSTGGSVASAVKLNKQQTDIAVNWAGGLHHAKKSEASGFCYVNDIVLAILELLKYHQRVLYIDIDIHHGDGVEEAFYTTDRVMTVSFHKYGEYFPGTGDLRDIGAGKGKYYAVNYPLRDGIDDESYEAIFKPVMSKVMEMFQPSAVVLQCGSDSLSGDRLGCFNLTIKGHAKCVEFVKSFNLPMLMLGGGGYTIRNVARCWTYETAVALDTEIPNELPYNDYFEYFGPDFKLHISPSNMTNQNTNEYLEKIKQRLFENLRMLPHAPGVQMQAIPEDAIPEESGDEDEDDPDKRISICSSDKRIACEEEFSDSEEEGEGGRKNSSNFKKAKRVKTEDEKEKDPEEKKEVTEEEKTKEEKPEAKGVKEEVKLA

With `CN(C)Cc1cccc(-c2cn(Cc3ncc(-c4nnc(C(F)F)o4)cc3F)nn2)c1` [Compound 18457, 1-(3-(1-((5-(5-(difluoromethyl)-1,3,4-oxadiazol-2-yl)-3-fluoropyridin-2-yl)methyl)-1H-1,2,3-triazol-4-yl)phenyl)-N,N-dimethylmethanamine], in assay [1], the “HDAC6 selectivity (fold)” value is 554 fold and the IC50 worked out at 90.1 nM. In addition, the IC50 in assay [2] was greater than 50000 nM.

Turning to `CC1CCN(Cc2cccc(-c3cn(Cc4ncc(-c5nnc(C(F)F)o5)cc4F)nn3)c2)CC1` [Compound 18459], the “HDAC6 selectivity (fold)” value in assay [1] is 778 fold. Moreover, the values for the IC50 in assay [1] and in assay [2] were 64.2 nM and greater than 50000 nM, respectively.

Take `Fc1cc(-c2nnc(C(F)F)o2)ccc1Cn1cc(-c2cccc3c2OC(F)(F)O3)nn1` [Compound 18470, 2-(4-((4-(2,2-difluorobenzo[d][1,3]dioxol-4-yl)-1H-1,2,3-triazol-1-yl)methyl)-3-fluorophenyl)-5-(difluoromethyl)-1,3,4-oxadiazole]: in assay [1], the “HDAC6 selectivity (fold)” value came to 506 fold and the IC50 was 98.7 nM. Moreover, the IC50 in assay [2] is greater than 50000 nM.

For the molecule `CN(C)Cc1cc(Cl)cc(-c2cn(Cc3ccc(-c4nnc(C(F)F)o4)cc3F)nn2)c1` [Compound 18483, 1-(3-chloro-5-(1-(4-(5-(difluoromethyl)-1,3,4-oxadiazol-2-yl)-2-fluorobenzyl)-1H-1,2,3-triazol-4-yl)phenyl)-N,N-dimethylmethanamine], in assay [1], the “HDAC6 selectivity (fold)” value is 970 fold and the IC50 was 51.5 nM. The IC50 in assay [2] is greater than 50000 nM.

Take `CN(C)Cc1cccc(-c2cn(Cc3ccc(-c4nnc(C(F)F)o4)cc3F)nn2)c1Cl` [Compound 18554, 1-(2-chloro-3-(1-(4-(5-(difluoromethyl)-1,3,4-oxadiazol-2-yl)-2-fluorobenzyl)-1H-1,2,3-triazol-4-yl)phenyl)-N,N-dimethylmethanamine]: in assay [1], the “HDAC6 selectivity (fold)” value is 1012 fold and the IC50 was found to be 49.4 nM. For the same molecule, the IC50 in assay [2] is greater than 50000 nM.

`Fc1cc(-c2nnc(C(F)F)o2)cnc1Cn1cc(-c2ccc(CN3CCC3)cn2)nn1` [Compound 18622, 2-(6-((4-(5-(azetidin-1-ylmethyl)pyridin-2-yl)-1H-1,2,3-triazol-1-yl)methyl)-5-fluoropyridin-3-yl)-5-(difluoromethyl)-1,3,4-oxadiazole]: in assay [1], the “HDAC6 selectivity (fold)” value came out at 606 fold and the IC50 came to 82.4 nM. In addition, in assay [2], the IC50 is greater than 50000 nM.

For `CN(C)Cc1ccc(-c2cn(Cc3ccc(-c4nnc(C(F)F)o4)cc3F)nn2)cc1Cl` [Compound 18711, 1-(2-chloro-4-(1-(4-(5-(difluoromethyl)-1,3,4-oxadiazol-2-yl)-2-fluorobenzyl)-1H-1,2,3-triazol-4-yl)phenyl)-N,N-dimethylmethanamine], in assay [1], the “HDAC6 selectivity (fold)” value was 524 fold and the IC50 turned out to be 95.4 nM. In assay [2], the IC50 is greater than 50000 nM.

On to `Fc1cc(-c2nnc(C(F)F)o2)ccc1Cn1cc(-c2ccc(CN3CCC3)c(Cl)c2)nn1` [Compound 18712], for which the “HDAC6 selectivity (fold)” value in assay [1] is 1146 fold. Besides, the IC50 in assay [1] was 43.6 nM; in assay [2], greater than 50000 nM.

Consider `Fc1cc(-c2nnc(C(F)F)o2)ccc1Cn1cc(-c2ccc(CN3CCCC3)c(Cl)c2)nn1` [Compound 18713, 2-(4-((4-(3-chloro-4-(pyrrolidin-1-ylmethyl)phenyl)-1H-1,2,3-triazol-1-yl)methyl)-3-fluorophenyl)-5-(difluoromethyl)-1,3,4-oxadiazole], for which, in assay [1], the “HDAC6 selectivity (fold)” value worked out at 685 fold. In addition, the IC50 in assay [1] was 72.9 nM; in assay [2], greater than 50000 nM.

Consider `COc1cccc(-c2cn(Cc3ccc(-c4nnc(C(F)F)o4)cc3F)nn2)n1` [Compound 18736, 2-(difluoromethyl)-5-(3-fluoro-4-((4-(6-methoxypyridin-2-yl)-1H-1,2,3-triazol-1-yl)methyl)phenyl)-1,3,4-oxadiazole], for which, in assay [1], the “HDAC6 selectivity (fold)” value is on record as 622 fold and the IC50 stood at 80.3 nM. Besides, the IC50 in assay [2] is greater than 50000 nM.

With `Fc1cc(-c2nnc(C(F)F)o2)cnc1Cn1cc(-c2ccccc2CN2CCC2)nn1` [Compound 18822, 2-(6-((4-(2-(azetidin-1-ylmethyl)phenyl)-1H-1,2,3-triazol-1-yl)methyl)-5-fluoropyridin-3-yl)-5-(difluoromethyl)-1,3,4-oxadiazole], the “HDAC6 selectivity (fold)” value in assay [1] came out at 98 fold. Besides, the results for the IC50 in assay [1] and in assay [2] were 505 nM and greater than 50000 nM, respectively.

As for `Fc1cc(-c2nnc(C(F)F)o2)cnc1Cn1cc(-c2ccccc2CN2CCCC2)nn1` [Compound 18823], in assay [1], the “HDAC6 selectivity (fold)” value is 131 fold and the IC50 worked out at 380 nM. The IC50 in assay [2] was greater than 50000 nM.

Regarding `CC(C)(C)OC(=O)N1CCC(c2cccc(-c3cn(Cc4ncc(-c5nnc(C(F)F)o5)cc4F)nn3)c2)CC1` [Compound 18868, tert-butyl 4-(3-(1-((5-(5-(difluoromethyl)-1,3,4-oxadiazol-2-yl)-3-fluoropyridin-2-yl)methyl)-1H-1,2,3-triazol-4-yl)phenyl)piperidin-1-carboxylate], in assay [1], the “HDAC6 selectivity (fold)” value amounted to 90 fold and the IC50 amounted to 551 nM. Also, in assay [2], the IC50 was greater than 50000 nM.

For the molecule `CN1CCC(c2cccc(-c3cn(Cc4ncc(-c5nnc(C(F)F)o5)cc4F)nn3)c2)CC1` [Compound 18869, 2-(difluoromethyl)-5-(5-fluoro-6-((4-(3-(1-methylpiperidin-4-yl)phenyl)-1H-1,2,3-triazol-1-yl)methyl)pyridin-3-yl)-1,3,4-oxadiazole], in assay [1], the “HDAC6 selectivity (fold)” value amounted to 1075 fold and the IC50 came to 46.5 nM. For the same molecule, in assay [2], the IC50 was greater than 50000 nM.

Regarding `Fc1cc(-c2nnc(C(F)F)o2)cnc1Cn1cc(-c2cccc(C3CCN(C4CCC4)CC3)c2)nn1` [Compound 18870, 2-(6-((4-(3-(1-cyclobutylpiperidin-4-yl)phenyl)-1H-1,2,3-triazol-1-yl)methyl)-5-fluoropyridin-3-yl)-5-(difluoromethyl)-1,3,4-oxadiazole], in assay [1], the “HDAC6 selectivity (fold)” value is given as 1123 fold and the IC50 amounted to 44.5 nM. Besides, in assay [2], the IC50 is greater than 50000 nM.

For the molecule `Fc1cc(-c2nnc(C(F)F)o2)cnc1Cn1cc(-c2cccc(C3CCN(C4COC4)CC3)c2)nn1` [Compound 18871, 2-(difluoromethyl)-5-(5-fluoro-6-((4-(3-(1-(oxetan-3-yl)piperidin-4-yl)phenyl)-1H-1,2,3-triazol-1-yl)methyl)pyridin-3-yl)-1,3,4-oxadiazole], in assay [1], the “HDAC6 selectivity (fold)” value is on record as 675 fold and the IC50 turned out to be 74 nM. The IC50 in assay [2] is greater than 50000 nM.

For `CC(C)(C)OC(=O)N1CC(N2CCC(c3cccc(-c4cn(Cc5ncc(-c6nnc(C(F)F)o6)cc5F)nn4)c3)CC2)C1` [Compound 18872, tert-butyl 3-(4-(3-(1-((5-(5-(difluoromethyl)-1,3,4-oxadiazol-2-yl)-3-fluoropyridin-2-yl)methyl)-1H-1,2,3-triazol-4-yl)phenyl)piperidin-1-yl)azetidin-1-carboxylate], in assay [1], the “HDAC6 selectivity (fold)” value came to 167 fold and the IC50 came out at 299 nM. The IC50 in assay [2] was greater than 50000 nM.

On to `CN1CC(N2CCC(c3cccc(-c4cn(Cc5ncc(-c6nnc(C(F)F)o6)cc5F)nn4)c3)CC2)C1` [Compound 18877, 2-(difluoromethyl)-5-(5-fluoro-6-((4-(3-(1-(1-methylazetidin-3-yl)piperidin-4-yl)phenyl)-1H-1,2,3-triazol-1-yl)methyl)pyridin-3-yl)-1,3,4-oxadiazole], for which the “HDAC6 selectivity (fold)” value in assay [1] is recorded as 367 fold. The IC50 in assay [1] was 136 nM; in assay [2] it was greater than 50000 nM.

In the case of `Fc1cc(-c2nnc(C(F)F)o2)cnc1Cn1cc(-c2cccc(C3CCN(C4CN(C5CCC5)C4)CC3)c2)nn1` [Compound 18878], the “HDAC6 selectivity (fold)” value in assay [1] came out at 429 fold. Also, the IC50 is 116 nM in assay [1] and greater than 50000 nM in assay [2].
